Test results published in ChEMBL document CHEMBL1201862, “PubChem BioAssay data set” (2004).
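Briefly, cells in 96-well plates were exposed to five compound concentrations for 48 h, and endpoints were estimated by linear interpolation. Here, GI50 denotes the concentration required for 50% inhibition of growth.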 The source made the active and inactive calls. Rule as the data show it: active = GI50 up to about 1.1 µM and inactive = higher.

Columns and labels:
Assay in all cases: NCI anticancer screen, dose series, 48 h
[1] = tested on: 786-0
[2] = tested on: A498
[3] = tested on: A549
[4] = tested on: ACHN
[5] = tested on: BT-549
[6] = tested on: CAKI-1
[7] = tested on: CCRF-CEM
[8] = tested on: COLO 205
[9] = tested on: DU-145
[10] = tested on: EKVX
[11] = tested on: HCC 2998
[12] = tested on: HCT-116
[13] = tested on: HCT-15
[14] = tested on: HL-60
[15] = tested on: HOP-62
[16] = tested on: HOP-92
[17] = tested on: HT-29
[18] = tested on: Hs-578T
[19] = tested on: IGROV-1
[20] = tested on: KM12
[21] = tested on: LOX IMVI
[22] = tested on: M14
[23] = tested on: MCF7
[24] = tested on: MDA-MB-231
[25] = tested on: MDA-MB-435
[26] = tested on: MOLT-4
[27] = tested on: Malme-3M
[28] = tested on: NCI-H226
[29] = tested on: NCI-H23
[30] = tested on: NCI-H460
[31] = tested on: NCI-H522
[32] = tested on: NCI/ADR-RES
[33] = tested on: OVCAR-3
[34] = tested on: OVCAR-4
[35] = tested on: OVCAR-5
[36] = tested on: OVCAR-8
[37] = tested on: PC-3
[38] = tested on: RPMI-8226
[39] = tested on: RXF 393
[40] = tested on: SF-268
[41] = tested on: SF-295
[42] = tested on: SF-539
[43] = tested on: SK-MEL-28
[44] = tested on: SK-MEL-2
[45] = tested on: SK-MEL-5
[46] = tested on: SK-OV-3
[47] = tested on: SN12C
[48] = tested on: SNB-19
[49] = tested on: SR
[50] = tested on: SW-620
[51] = tested on: T47D
[52] = tested on: TK-10
[53] = tested on: U-251
[54] = tested on: UACC-257
[55] = tested on: UACC-62
[56] = tested on: UO-31
[57] = tested on: MDA-N
[58] = tested on: K562
[59] = tested on: SNB-75

COc1c(O)cc2c(c1O)C(=O)C1=C(CCCC1)C2=O
GI50 [1]: 17.3 µM (inactive) | GI50 [2]: 17.9 µM (inactive) | GI50 [3]: 26.1 µM (inactive) | GI50 [4]: 23 µM (inactive) | GI50 [5]: 23 µM (inactive) | GI50 [6]: 27.5 µM (inactive) | GI50 [7]: 1.87 µM (inactive) | GI50 [8]: 19.1 µM (inactive) | GI50 [9]: 22.3 µM (inactive) | GI50 [10]: 22.6 µM (inactive) | GI50 [11]: 21.9 µM (inactive) | GI50 [12]: 12.5 µM (inactive) | GI50 [13]: 26.1 µM | GI50 [14]: 8.24 µM (inactive) | GI50 [15]: 33.4 µM (inactive) | GI50 [16]: 21.7 µM (inactive) | GI50 [17]: 21.7 µM (inactive) | GI50 [18]: 21.8 µM (inactive) | GI50 [19]: 12.6 µM (inactive) | GI50 [20]: 20.2 µM (inactive) | GI50 [21]: 14.7 µM (inactive) | GI50 [22]: 34.8 µM (inactive) | GI50 [23]: 33.9 µM (inactive) | GI50 [24]: 19 µM (inactive) | GI50 [25]: 26.9 µM (inactive) | GI50 [26]: 4.8 µM (inactive) | GI50 [27]: 25.8 µM (inactive) | GI50 [28]: 30.5 µM (inactive) | GI50 [29]: 15.5 µM (inactive) | GI50 [30]: 27.1 µM (inactive) | GI50 [31]: 13 µM (inactive) | GI50 [32]: 17.3 µM (inactive) | GI50 [33]: 20.3 µM (inactive) | GI50 [34]: 21.6 µM (inactive) | GI50 [35]: 38.4 µM (inactive) | GI50 [36]: 20.4 µM (inactive) | GI50 [37]: 22.8 µM (inactive) | GI50 [38]: 9.53 µM (inactive) | GI50 [39]: 14.9 µM (inactive) | GI50 [40]: 24.4 µM (inactive) | GI50 [41]: 25.2 µM (inactive) | GI50 [42]: 15.6 µM (inactive) | GI50 [43]: 24 µM (inactive) | GI50 [44]: 37.6 µM (inactive) | GI50 [45]: 23.9 µM (inactive) | GI50 [46]: 19.8 µM (inactive) | GI50 [47]: 20.6 µM (inactive) | GI50 [48]: 31.5 µM (inactive) | GI50 [49]: 10.8 µM (inactive) | GI50 [50]: 27.4 µM (inactive) | GI50 [51]: 17.9 µM (inactive) | GI50 [52]: 34.3 µM (inactive) | GI50 [53]: 21 µM (inactive) | GI50 [54]: 34 µM (inactive) | GI50 [55]: 20.3 µM (inactive) | GI50 [56]: 7.24 µM (inactive)

CC(C)(C)C1CCC2c3c([nH]c4ccccc34)C3C(=O)N(c4cc(Br)cc(Br)c4)C(=O)C3C2C1 (stereo not given)
GI50 [1]: 6.95 µM (inactive) | GI50 [2]: 19.7 µM (inactive) | GI50 [3]: 14.8 µM (inactive) | GI50 [4]: 20 µM (inactive) | GI50 [5]: 33.9 µM (inactive) | GI50 [6]: 13.7 µM (inactive) | GI50 [7]: 5.79 µM (inactive) | GI50 [8]: 19.6 µM (inactive) | GI50 [9]: 21.4 µM (inactive) | GI50 [10]: 6.58 µM (inactive) | GI50 [11]: 5.05 µM (inactive) | GI50 [12]: 4.34 µM (inactive) | GI50 [13]: 25.4 µM | GI50 [14]: 2.55 µM (inactive) | GI50 [15]: 18.7 µM (inactive) | GI50 [16]: 2.63 µM (inactive) | GI50 [17]: 9.89 µM (inactive) | GI50 [18]: 7 µM (inactive) | GI50 [19]: 70.3 µM (inactive) | GI50 [20]: 12.6 µM (inactive) | GI50 [21]: 27.2 µM (inactive) | GI50 [22]: 25.4 µM (inactive) | GI50 [23]: 3.2 µM (inactive) | GI50 [24]: 27 µM (inactive) | GI50 [25]: 19.7 µM (inactive) | GI50 [57]: 31.9 µM (inactive) | GI50 [26]: 5.26 µM (inactive) | GI50 [27]: 57.9 µM (inactive) | GI50 [28]: 21.9 µM (inactive) | GI50 [29]: 15.9 µM (inactive) | GI50 [30]: 6.43 µM (inactive) | GI50 [31]: 20.9 µM (inactive) | GI50 [32]: 14.6 µM (inactive) | GI50 [33]: > 10 µM (inactive) | GI50 [34]: 10.1 µM (inactive) | GI50 [35]: 31.6 µM (inactive) | GI50 [36]: 16 µM (inactive) | GI50 [37]: 9.95 µM (inactive) | GI50 [38]: 36.4 µM (inactive) | GI50 [42]: 16.7 µM (inactive) | GI50 [43]: 13.2 µM (inactive) | GI50 [44]: 26.7 µM (inactive) | GI50 [45]: 24.2 µM (inactive) | GI50 [46]: 61.1 µM (inactive) | GI50 [47]: 6.82 µM (inactive) | GI50 [49]: 7.89 µM (inactive) | GI50 [50]: 51.2 µM (inactive) | GI50 [52]: 19.9 µM (inactive) | GI50 [53]: 13.4 µM (inactive) | GI50 [54]: > 100 µM (inactive) | GI50 [55]: 25.1 µM (inactive) | GI50 [56]: 6.97 µM (inactive)

COC(=O)c1csc(-c2csc(CCNC(=O)OC(C)(C)C)n2)n1
GI50 [1]: > 100 µM (inactive) | GI50 [2]: 26.1 µM (inactive) | GI50 [3]: > 100 µM (inactive) | GI50 [4]: > 100 µM (inactive) | GI50 [5]: 40.4 µM (inactive) | GI50 [7]: 43.5 µM (inactive) | GI50 [8]: > 100 µM (inactive) | GI50 [9]: > 100 µM (inactive) | GI50 [10]: > 100 µM (inactive) | GI50 [11]: > 100 µM (inactive) | GI50 [12]: > 100 µM (inactive) | GI50 [13]: > 100 µM | GI50 [14]: > 100 µM (inactive) | GI50 [15]: > 100 µM (inactive) | GI50 [16]: > 100 µM (inactive) | GI50 [17]: > 100 µM (inactive) | GI50 [18]: > 100 µM (inactive) | GI50 [19]: > 100 µM (inactive) | GI50 [58]: > 100 µM (inactive) | GI50 [20]: > 100 µM (inactive) | GI50 [22]: > 100 µM (inactive) | GI50 [23]: > 100 µM (inactive) | GI50 [25]: > 100 µM (inactive) | GI50 [57]: > 100 µM (inactive) | GI50 [26]: 42.7 µM (inactive) | GI50 [27]: > 100 µM (inactive) | GI50 [28]: > 100 µM (inactive) | GI50 [29]: > 100 µM (inactive) | GI50 [30]: > 100 µM (inactive) | GI50 [32]: 54.3 µM (inactive) | GI50 [33]: > 100 µM (inactive) | GI50 [35]: > 100 µM (inactive) | GI50 [36]: > 100 µM (inactive) | GI50 [37]: 56.1 µM (inactive) | GI50 [38]: > 100 µM (inactive) | GI50 [39]: > 100 µM (inactive) | GI50 [40]: > 100 µM (inactive) | GI50 [41]: > 100 µM (inactive) | GI50 [42]: > 100 µM (inactive) | GI50 [43]: > 100 µM (inactive) | GI50 [45]: 90.6 µM (inactive) | GI50 [46]: > 100 µM (inactive) | GI50 [47]: > 100 µM (inactive) | GI50 [48]: > 100 µM (inactive) | GI50 [59]: 51.8 µM (inactive) | GI50 [49]: 59.7 µM (inactive) | GI50 [50]: > 100 µM (inactive) | GI50 [52]: > 100 µM (inactive) | GI50 [53]: > 100 µM (inactive) | GI50 [54]: > 100 µM (inactive) | GI50 [55]: 59.7 µM (inactive) | GI50 [56]: > 100 µM (inactive)
